Patent US10562898B2, “Substituted benzenesulfonamides as inhibitors of alpha-4 beta-7 integrin activity” (EA PHARMA CO., LTD., priority 2016, dated 2020)

Target: T1, α4β7 integrin (Homo sapiens, UniProt P13612+P26010)
T1 construct: a cell line RPMI-8866, which is known to express α4β7 integrin; endogenous in cells; host or cells: RPMI-8866 (human B cell line)
T1 sequence (P13612 34-1032): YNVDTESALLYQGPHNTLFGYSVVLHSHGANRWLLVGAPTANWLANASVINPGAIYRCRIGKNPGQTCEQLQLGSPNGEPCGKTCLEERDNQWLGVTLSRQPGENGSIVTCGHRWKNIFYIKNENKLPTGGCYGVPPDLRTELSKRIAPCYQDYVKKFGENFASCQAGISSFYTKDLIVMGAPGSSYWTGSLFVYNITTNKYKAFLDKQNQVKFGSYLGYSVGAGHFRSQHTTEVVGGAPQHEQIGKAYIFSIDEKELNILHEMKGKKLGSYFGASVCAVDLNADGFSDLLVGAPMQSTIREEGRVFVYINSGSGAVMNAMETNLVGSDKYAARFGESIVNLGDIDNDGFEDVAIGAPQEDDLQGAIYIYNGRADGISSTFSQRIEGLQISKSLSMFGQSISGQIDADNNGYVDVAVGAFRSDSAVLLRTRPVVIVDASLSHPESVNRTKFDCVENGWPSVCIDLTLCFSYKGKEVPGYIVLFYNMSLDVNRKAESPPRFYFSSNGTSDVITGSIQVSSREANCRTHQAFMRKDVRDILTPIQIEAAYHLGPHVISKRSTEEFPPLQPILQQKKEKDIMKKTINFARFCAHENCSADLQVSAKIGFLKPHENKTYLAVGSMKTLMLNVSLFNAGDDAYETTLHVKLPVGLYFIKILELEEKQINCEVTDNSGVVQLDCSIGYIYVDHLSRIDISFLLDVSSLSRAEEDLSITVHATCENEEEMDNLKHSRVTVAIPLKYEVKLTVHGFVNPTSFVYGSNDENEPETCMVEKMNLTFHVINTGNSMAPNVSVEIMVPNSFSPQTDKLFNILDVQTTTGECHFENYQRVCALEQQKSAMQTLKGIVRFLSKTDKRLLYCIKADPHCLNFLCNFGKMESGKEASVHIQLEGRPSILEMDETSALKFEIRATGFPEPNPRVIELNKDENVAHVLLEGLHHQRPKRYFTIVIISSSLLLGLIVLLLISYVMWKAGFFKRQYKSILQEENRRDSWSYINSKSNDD
T1 sequence (P26010 20-798): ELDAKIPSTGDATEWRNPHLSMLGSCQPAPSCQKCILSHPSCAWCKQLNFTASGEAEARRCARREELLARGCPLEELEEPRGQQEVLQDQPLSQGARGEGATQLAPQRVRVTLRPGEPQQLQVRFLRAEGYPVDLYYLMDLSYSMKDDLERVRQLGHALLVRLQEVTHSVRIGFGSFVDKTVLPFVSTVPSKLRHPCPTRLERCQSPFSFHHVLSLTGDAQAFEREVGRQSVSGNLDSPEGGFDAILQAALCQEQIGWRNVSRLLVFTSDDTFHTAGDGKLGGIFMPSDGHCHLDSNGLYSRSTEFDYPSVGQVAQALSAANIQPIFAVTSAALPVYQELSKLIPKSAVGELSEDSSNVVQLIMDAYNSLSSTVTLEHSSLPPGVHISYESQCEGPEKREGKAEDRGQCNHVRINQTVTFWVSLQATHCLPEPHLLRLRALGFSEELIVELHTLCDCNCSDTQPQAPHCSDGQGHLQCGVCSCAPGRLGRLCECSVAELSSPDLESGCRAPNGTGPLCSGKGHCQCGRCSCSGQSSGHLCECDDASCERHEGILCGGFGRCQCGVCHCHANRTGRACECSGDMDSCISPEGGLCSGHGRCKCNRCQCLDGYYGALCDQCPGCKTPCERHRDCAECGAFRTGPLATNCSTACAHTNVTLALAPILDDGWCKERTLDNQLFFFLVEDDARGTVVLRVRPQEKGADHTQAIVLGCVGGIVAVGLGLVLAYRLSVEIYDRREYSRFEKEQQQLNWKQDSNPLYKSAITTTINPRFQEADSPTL
Assay: MAdCAM-1/α4β7 integrin binding inhibitory activity evaluation test (RPMI-8866 cells binding to MAdCAM-1/Fc)
Format: cell-based
Details: recombinant mouse MAdCAM-1/Fc, no serum
Description: (2) MAdCAM-1/α4β7 Integrin Binding Inhibitory Activity Evaluation Test
Each test substance was measured in terms of an ability to inhibit the MAdCAM-1 binding of a human B cell line, namely, a cell line RPMI-8866, which is known to express α4β7 integrin.
A solution of recombinant mouse MAdCAM-1/Fc (R&D Systems, Inc.) (0.75 μg/mL) diluted with a buffer A (carbonate buffer, pH 9.6) was added in an amount of 50 μL/well to a 96-well microtiter plate, followed by incubation at 4° C. overnight. After the plate was washed with PBS once, 150 μL/well of Block Ace (Snow Brand Milk Products Co., Ltd.) was added, followed by incubation at room temperature for 2 hours. After removal, the plate was washed with PBS once.
Then, 100 μL of the RPMI-8866 cells (2×10^6 cells/mL) and 100 μL of the test substance at each of various concentrations diluted with a binding buffer (DMEM containing 40 mM HEPES, 0.2% BSA, and 4 mM MnCl2) were added on the plate coated with the MAdCAM-1/Fc (5×10^5 cells/well), followed by incubation at 30° C. for 15 to 60 minutes. After the cells were bound to the wells, the plate was washed with PBS to remove unbound cells. A buffer C (PBS containing 1.5% Triton X-100) in an amount 50 μL/well was added to the plate to lyse the bound RPMI-8866 cells. After 30 μL of a substrate buffer (Promega, CytoTox 96 Non-Radioactive Cytotoxicity Assay) was added to 30 μL of the cell lysate, a reaction was allowed to proceed at room temperature in the dark for 30 minutes. After 30 μL of a stop solution (Promega, CytoTox 96 Non-Radioactive Cytotoxicity Assay) was added to each, and then an absorbance at 490 nm was measured using a plate reader. The absorbance obtained here represents a detection result of an activity of lactate dehydrogenase (LDH) eluted in the supernatant of each well, that is, the absorbance is proportional to the number of RPMI-8866 cells bound to the MAdCAM-1 and thus remaining on the plate. The test was performed in duplicate. Provided that the absorbance of the well containing no test substance was 100%, a cell binding rate with the test substance at each of the various concentrations was figured out, and a concentration IC50 which brought about 50% binding inhibition was calculated.

Compound | IC50 [nM]
Cc1cn(C)c(=O)n(-c2ccc(C[C@H](NC(=O)c3cc(F)c(NS(=O)(=O)c4ccc(NC(=O)C(C)C)cc4)cc3F)C(=O)O)cn2)c1=O [Compound A71] | 3.2
Cc1c(C)n(C)c(=O)n(-c2ccc(C[C@H](NC(=O)c3cc(F)c(NS(=O)(=O)c4cc(NC(=O)C(C)(C)C)cs4)cc3F)C(=O)O)cc2)c1=O [Compound A11] | 2
Cn1ccc(=O)n(-c2ccc(C[C@H](NC(=O)c3cc(F)c(NS(=O)(=O)c4ccc(NC(=O)C(C)(C)CO)cc4)cc3F)C(=O)O)cn2)c1=O [Compound A62] | 4.9
Cn1c(=O)n(-c2ccc(C[C@H](NC(=O)c3cc(F)c(NS(=O)(=O)c4ccc(NC(=O)C5(C(F)(F)F)CC5)cc4)cc3F)C(=O)O)cc2)c(=O)c2ccncc21 [Compound A24] | 0.3
Cn1c(=O)n(-c2ccc(C[C@H](NC(=O)c3cc(F)c(NS(=O)(=O)c4ccc(NC(=O)C(C)(C)CO)cc4)cc3F)C(=O)O)cc2)c(=O)c2ccncc21 [Compound A18] | 0.36
Cc1c(C)n(C)c(=O)n(-c2ccc(C[C@H](NC(=O)c3cc(F)c(NS(=O)(=O)c4ccc(NC(=O)C(C)(C)C)cn4)cc3F)C(=O)O)cn2)c1=O [Compound A32] | 0.62
CCC(CC)C(=O)Nc1ccc(S(=O)(=O)Nc2cc(F)c(C(=O)N[C@@H](Cc3ccc(-n4c(=O)c5ccncc5n(C)c4=O)cc3)C(=O)O)cc2F)cc1 [Compound A3] | 0.72
Cn1c(=O)n(-c2ccc(C[C@H](NC(=O)c3cc(F)c(NS(=O)(=O)c4ccc(NC(=O)C(C)(C)C)c(F)c4)cc3F)C(=O)O)cc2)c(=O)c2ccncc21 [Compound A12] | 0.45
Cn1c(=O)n(-c2ccc(C[C@H](NC(=O)c3cc(F)c(NS(=O)(=O)c4ccc(NC(=O)C5CCNCC5)cc4)cc3F)C(=O)O)cc2)c(=O)c2ccncc21 [Compound A6, (2S)-2-[[2,5-difluoro-4-[[4-(piperidine-4-carbonylamino)phenyl]sulfonylamino]benzoyl]amino]-3-[4-(1-methyl-2,4-dioxo-pyrido[3,4-d]pyrimidin-3-yl)phenyl]propanoic acid] | 2.4
Cc1cn(C)c(=O)n(-c2ccc(C[C@H](NC(=O)c3cc(F)c(NS(=O)(=O)c4ccc(NC(=O)C#CC(C)(C)C)cc4)cc3F)C(=O)O)cn2)c1=O [Compound A68] | 5

The next lines start with the values.

IC50 [nM] | Compound
3.4 | Cn1ccc(=O)n(-c2ccc(C[C@H](NC(=O)c3cc(F)c(NS(=O)(=O)c4ccc(NC(=O)C(C)(C)C)cc4)cc3F)C(=O)O)nc2)c1=O [Compound A70]
2.4 | Cc1cn(C)c(=O)n(-c2ccc(C[C@H](NC(=O)c3cc(F)c(NS(=O)(=O)c4ccc(NC(=O)C(C)(C)CO)cc4)cc3F)C(=O)O)cn2)c1=O [Compound A63]
0.56 | Cc1c(C)n(C)c(=O)n(-c2ccc(C[C@H](NC(=O)c3cc(F)c(NS(=O)(=O)c4ccc(NC(=O)C(C)(C)C)cc4)cc3F)C(=O)O)cn2)c1=O [Compound A28]
0.48 | Cn1c2c(c(=O)n(-c3ccc(C[C@H](NC(=O)c4cc(F)c(NS(=O)(=O)c5ccc(NC(=O)C(C)(C)C)cc5)cc4F)C(=O)O)cn3)c1=O)COCC2 [Compound A44]
0.34 | Cc1c(C)n(C)c(=O)n(-c2ccc(C[C@H](NC(=O)c3cc(F)c(NS(=O)(=O)c4ccc(NC(=O)C(C)(C)CO)cc4)cc3F)C(=O)O)cc2)c1=O [Compound A21]
0.74 | Cn1c2c(c(=O)n(-c3ccc(C[C@H](NC(=O)c4cc(F)c(NS(=O)(=O)c5ccc(NC(=O)C(C)(C)C)cc5)cc4F)C(=O)O)nc3)c1=O)CCCC2 [Compound A47]
1.1 | Cc1cn(C)c(=O)n(-c2ccc(C[C@H](NC(=O)c3cc(F)c(NS(=O)(=O)c4ccc(NC(=O)C(C)(C)C)cc4)cc3F)C(=O)O)cc2)c1=O [Compound A37]
2 | Cn1ccc(=O)n(-c2ccc(C[C@H](NC(=O)c3cc(F)c(NS(=O)(=O)c4ccc(NC(=O)C(C)(C)C)cc4)cc3F)C(=O)O)cn2)c1=O [Compound A53]
2.9 | Cc1c(C)n(C)c(=O)n(-c2ccc(C[C@H](NC(=O)c3cc(F)c(NS(=O)(=O)c4cccc(NC(=O)C(C)(C)C)c4)cc3F)C(=O)O)cc2)c1=O [Compound A49]
